Source: patent US20140039204A1, “7'-PHLOROECKOL COMPOUND FOR HAIR PROLIFERATION AND A COSMETIC COMPOSITION CONTAINING SAME” (PUKYONG NATIONAL UNIVERSITY INDUSTRY-UNIVERSITY COOPERATION …, priority 2011, published 2014)

Legend:
[1] = tested on: ERK pathway (MEK ½, p-ERK, c-Fos) in HaCaT; experiment: Western blot, ERK pathway in HaCaT; format: cell-based, human; conditions: 1 hour
Method: (§1) Western blot assay was performed as standard procedure to study the action mechanism on HFDPC and HaCaT proliferation mediated by 7′-phloroeckol. That is, cells were seeded with serum free medium in 6-well, then cultured for 24 hours (1.0×10^6 cells/well). Then, the cells were replaced with new medium and treated with the samples in the different concentrations for 1 hour to 24 hours. The cells were lysed in RIPA lysis buffer at 4° C. for 10 minutes. 10 μg cell lysate were divided by 10% SDS-polyacrylamide gel electrophoresis, transferred to polyvinylidenefluoride membrane filter and the membranes were blocked with 5% skim milk, hybridized with primary antibodies (1:10,000 dilution). Following the incubation with secondary horseradish peroxidase-conjugated antibodies at room temperature, immunoreactive protein was detected by using chemiluminescence ECL assay kit according to the manufacturer's instructions. Western blot band was visualized by using LAS3000® Luminescent image analyzer (Fujifilm Life Science, Tokyo, Japan).
(§2) Cells were treated with 7′-phloroeckol for 1 hour to 24 hours to examine the expression of protein by using western blot assay. Graph showing the result of western blot in HFDPC were illustrated in the FIGS. 3 to 6(a) and graphs showing the result of western blot in HaCaT were illustrated in the FIGS. 3 to 6(b). While HFDPC and HaCaT were treated with 7′-phloroeckol for 1 hour in the experiment on the pathway of ERK and AKT relating cell proliferation, HFDPC and HaCaT were treated with 7′-phloroeckol for 24 hours in the experiment on Bcl-2, Bax, p53, caspase-9 and caspase-3 relating apoptosis, then the protein expression were observed.
(§3) Data were expressed as a ratio of control group that doesn't contain the treated samples, the values are means±SEM, different letters written on the graph indicate a significant defference in Duncan's multiple range test (p<0.05).
(§4) HFDPC and HaCaT were treated with 7′-phloroeckol and cultured for 1 hour to study activation of 7′-phloroeckol on ERK pathway related to cell proliferation (FIG. 3).

[2] = tested on: HaCaT (human epidermal keratinocyte); experiment: MTT assay, cell proliferation of HaCaT; format: cell-based; conditions: 5 days
Method: (§5) Human Hair Follicle Dermal Papilla Cells (HFDPC) were purchased from Promo Cell (Heidelberg, Germany). Cells were cultured in ready-to-use HFDPC medium, which is composed of Basal Medium, Fetal Calf Serum (FCS), Supplement Kit (Promo Cell, Heidelberg, Germany) including basic FGF and insulin. Kit including HEPES Buffer Saline Solution (HBSS), trypsin/EDTA solution and Trypsin Neutralizing Solution (Promo Cell, Heidelberg, Germany) was used for subculture. Subcultured 4th to 6th TFDPC was used for experiments. HaCaT (human epidermal keratinocyte) was cultured in Dulbecco's modified Eagle's medium (DMEM, Gibco BRL,
(§6) 3-[4,5-dimethylthiazol-2yl]-2,5 diphenyl tetrazolium bromide (MTT) Assay
(§7) Cell proliferation of HFDPC and HaCaT were measured by using MTT method. After cells were seeded in 96-well with serum-free medium, the cells were incubated for 1 day (1.0×10^4 cells/well). Then, we replaced with new medium and cells were treated with 0.01 μM, 0.05 μM, 0.1 μμM, 0.5 μM and 1 μM samples, then incubated for 5 days. MTT solution (5 mg/ml) was added, the cells were cultivated in 37° C. incubator for 3 hours. Then, the medium were removed and the formazan crystal were dissolved with Dimethyl sulfoxide (DMSO), then the absorbance of the solution were measured.
As described in the FIG. 1 and FIG. 2, data were expressed as the percentage on the control that doesn't contain the treated samples. […]

Bcl-2, Bax, p53 in HaCaT = experiment: Western blot, apoptosis-related factors in HaCaT; format: cell-based, human; conditions: 24 hours
Method: as §1, §2, §3
(§8) To study the apoptotic effect by 7′-phloroeckol, HFDPC and HaCaT were treated with 7′-phloroeckol, then cultured for 24 hours (FIG. 5).

[3] = tested on: AKT pathway (PI3K, p-AKT, whole AKT) in HFDPC; experiment: Western blot, AKT pathway in HFDPC; format: cell-based, human; conditions: 1 hour
Method: as §1, §2, §3
After HFDPC and HaCaT were treated with 7′-phloroeckol and cultured for 1 hour to study the activation of 7′-phloroeckol on AKT pathway related cell proliferation (FIG. 4). […] But, there was no difference in whole AKT levels between treated with samples and without samples. Also, 0.5 μM 7′-phloroekol induced 1.75-fold and 1.65-fold levels of PI3K and pAKT in HaCaT.

[4] = tested on: ERK pathway (MEK ½, p-ERK, total ERK, c-Fos) in HFDPC; experiment: Western blot, ERK pathway in HFDPC; format: cell-based, human; conditions: 1 hour
Method: as §1, §2, §3, §4

[5] = tested on: Human Hair Follicle Dermal Papilla Cells (HFDPC); experiment: MTT assay, cell proliferation of HFDPC; format: cell-based
Method: as §5, §6, §7
As described in the FIG. 1 and FIG. 2, data were expressed as the percentage on the control that doesn't contain the treated samples. […] Different letters as stated on the graph indicate a significant difference in Duncan's multiple range test (p<0.05).

[6] = tested on: AKT pathway (PI3K, pAKT) in HaCaT; experiment: Western blot, AKT pathway in HaCaT; format: cell-based, human; conditions: 0.5 μM, 1 hour
Method: as §1
(§9) Cells were treated with 7′-phloroeckol for 1 hour to 24 hours to examine the expression of protein by using western blot assay. […]
(§10) Data were expressed as a ratio of control group that doesn't contain the treated samples, the values are means±SEM, different letters written on the graph indicate a significant defference in Duncan's multiple range test (p<0.05). […]

Bcl-2, Bax, p53 in HFDPC = experiment: Western blot, apoptosis-related factors in HFDPC; format: cell-based, human; conditions: 24 hours
Method: as §1, §2, §3, §8

[7] = tested on: caspase-3 and caspase-9 in HaCaT; experiment: Western blot, caspase-3 and caspase-9 in HaCaT; format: cell-based, human; conditions: 24 hours
Method: as §1, §2, §10

[8] = tested on: caspase-3 and caspase-9 in HFDPC; experiment: Western blot, caspase-3 and caspase-9 in HFDPC; format: cell-based, human; conditions: 0.5 μM, 24 hours
Method: as §1, §9, §10

## Oc1cc(O)cc(Oc2c(O)cc(O)c3c2Oc2c(O)cc(Oc4c(O)cc(O)cc4O)cc2O3)c1 [7′-phloroeckol, 1-(3′,5′-dihydroxyphenoxy)-7-(2″,4″,6-trihydroxyphenoxy)-2,4,9-trihydroxydibenzo-1,4-dioxin]
[1]
  expression of MEK ½ protein: increased in dose-dependent manner
  expression of c-Fos protein: increased in dose-dependent manner
  expression of p-ERK protein: increased in dose-dependent manner
[2]; 0.01-1 μM, percentage of control
  cell proliferation in HaCaT: increased the cell proliferation in dose-dependent manner
[2]; HaCaT, 0.1 μM
  cell viability compared with 0.1 μM Minoxidil: higher cell viability than 0.1 μM Minoxidil
Bcl-2, Bax, p53 in HaCaT; 0.05 μM
  expression of Bcl-2 protein versus control group: 2.60 fold
Bcl-2, Bax, p53 in HaCaT; 0.5 μM
  expression of Bcl-2 protein versus control group: 4.21 fold
  level of Bax versus control: 0.67 fold
  level of p53 versus control: 0.72 fold
[3]; 0.05 μM
  PI3K levels versus control group: 1.76 fold
  expression of phospho AKT (p-AKT) protein versus control group: 1.53 fold
[3]; 0.5 μM
  PI3K levels versus control group: 3.07 fold
  expression of phospho AKT (p-AKT) protein versus control group: 2.40 fold
[3]
  whole AKT levels, treated versus untreated: no difference
[4]; 0.05 μM
  expression of MEK ½ protein versus control group: 1.17 fold
  level of phospho-ERK (p-ERK) versus control group: 1.39 fold
[4]; 0.5 μM
  expression of MEK ½ protein versus control group: 1.65 fold
  level of phospho-ERK (p-ERK) versus control group: 1.71 fold
[4]; 0.05 and 0.5 μM
  expression of c-Fos protein: increased the expression of c-Fos protein
  total ERK levels, treated versus untreated: no significant difference
[5]; 0.01-1 μM, 5 days, percentage of control
  cell proliferation in HFDPC: increased the cell proliferation in dose-dependent manner
[5]; HFDPC, 1 μM, 5 days
  cell viability compared with 1 μM Minoxidil: significantly higher cell viability than 1 μM Minoxidil
[5]; HFDPC, 0.5 to 1 μM
  cell proliferation, 0.5 versus 1 μM: weren't significantly different
[6]
  level of PI3K: 1.75 fold
  level of pAKT: 1.65 fold
Bcl-2, Bax, p53 in HFDPC
  expression level of Bcl-2: decreased
  expression level of p53: decreased
  expression of proapoptotic molecule Bax: decreased the expression of proapoptotic molecule Bax
Bcl-2, Bax, p53 in HFDPC; dose-dependent
  expression level of Bcl-2 protein: significantly increased
[7]; 0.05 μM
  expression of caspase-3 protein versus control group: 0.88 fold
[7]; 0.5 μM
  expression of caspase-3 protein versus control group: 0.68 fold
[7]
  expression of caspase-9: suppressing the expression
[8]
  expression of caspase-3 protein versus control group: 0.14 fold
  expression of caspase-9 protein versus control group: 0.13 fold
